Experimental data from patent publication US7785581B2, “Composition and method for reducing feces toxins and treating digestive disorders” (Qingdao East Sea Pharmaceuticals Ltd., priority 2006, dated 2010).

Assays:
Format in all cases: in vivo, human
IBS patients = test: Treatment of IBS with live Bifidobacterium tablets (Example 8)
patients with diarrhea [1] = test: Treatment of diarrhea associated with cold or raw food, or with common cold (Example 9); settings: 14 to 21 days
patients with diarrhea [2] = test: Treatment of diarrhea associated with alcohol intake (Example 10); settings: 14 to 21 days
[3] = 57 IBS patients, 14 to 21 days, cured plus effective
[4] = diarrhea after cold/raw food or common cold
[5] = diarrhea after drinking alcohol

For Bifidobacterium, the Cured % (IBS patients; 57 IBS patients, 14 to 21 days) was 61%, the “Cured Case No.” value (IBS patients; 57 IBS patients, 14 to 21 days) was 35 and the Effective % (IBS patients; 57 IBS patients, 14 to 21 days) was 28%. The “Effective Case No.” value (IBS patients; 57 IBS patients, 14 to 21 days) was 16, the Improved % (IBS patients; 57 IBS patients, 14 to 21 days) was 11% and the “Improved Case No.” value (IBS patients; 57 IBS patients, 14 to 21 days) was 6. For the same substance, the Ineffective % (IBS patients; 57 IBS patients, 14 to 21 days) was 0%, the “Ineffective Case No.” value (IBS patients; 57 IBS patients, 14 to 21 days) was 0 and the “Effective Cases % (overall effective rate)” value (IBS patients; [3]) was 89%. For the same substance, the “Effective Cases Case No.” value (IBS patients; [3]) was 51, the “other IBS symptoms, such as abdominal pain and discomfort” value (IBS patients; IBS patients) was “alleviated” and the “symptoms of diarrhea or constipation” value (IBS patients; most of the IBS patients) was “ameliorated”. The “effectiveness in treating diarrhea associated with eating cold or raw foods, or with common cold” value (patients with diarrhea [1]) was “highly effective”, the “Cured (cases)” value (patients with diarrhea [1]; [4]) was 23 and the “Effective (cases)” value (patients with diarrhea [1]; [4]) was 14. For the same substance, the “Improved (cases)” value (patients with diarrhea [1]; [4]) was 5, the “Ineffective (cases)” value (patients with diarrhea [1]; [4]) was 0 and the Efficacy (patients with diarrhea [1]; diarrhea after cold/raw food or common cold, cured plus effective) was 88.10%. The “effectiveness in treating diarrhea associated with alcohol intake” value (patients with diarrhea [2]) was “highly effective”, the “Cured (cases)” value (patients with diarrhea [2]; [5]) was 21 and the “Effective (cases)” value (patients with diarrhea [2]; [5]) was 13. The “Improved (cases)” value (patients with diarrhea [2]; [5]) was 4, the “Ineffective (cases)” value (patients with diarrhea [2]; [5]) was 0 and the Efficacy (patients with diarrhea [2]; diarrhea after drinking alcohol, cured plus effective) was 89.5%.
